Assay results reported in patent US10087181B2, “Compound as WNT signaling inhibitor, composition, and use thereof” (CUREGENIX, INC., priority 2012, dated 2018).
pIC50: −log10 of the molar value.

system: WNT pathway; test: WNT pathway reporter gene assay (NIH3T3 TCF-Luc cells co-cultured with 293 WNT3a cells); assay type: cell-based; conditions: Mus musculus, concentration reducing luminescence intensity by 50%, TCF luciferase, 16 hours co-culture
Protocol: NIH3T3 mouse fibroblast cells (American Type Culture Collection, Manassas, Va.) were transfected with a plasmid containing a luciferase gene driven by 5 copies of TCF elements. Stale cells selected with 1 μg/mL of Zeocin (Gibco/Invitrogen, Carlsbad, Calif.) are cultured in Dulbecco's modified Eagle's medium (Invitrogen, Carlsbad, Calif.) supplemented with 10% FBS (Invitrogen), 50 unit/mL penicillin and 50 μg/mL of streptomycin (Invitrogen) at 37° C. with 5% CO2 in air atmosphere.
After 16 hours, the firefly luciferase activities are measured with the Steady-Glo™ Luciferase Assay System (Promega). The cells were treated with different concentrations of compounds of this invention during the co-culture. […] To normalize for cell quantity and viability, CellTiter Glo assay is next performed in a duplicate plate.

pIC50, > 8.52:
Cc1cc(-c2ccc(CNc3nccc4cc(-c5cnccn5)ncc34)cc2)ccn1 [Compound 35]
Cc1cc(-c2ccc(CNc3nccc4cc(-c5ccnc(C)c5)ncc34)cc2)ccn1 [Compound 1, N-(4-(2-methylpyridin-4-yl)benzyl)-6-(2-methylpyridin-4-yl)-2,7-naphthyridin-1-amine]
Cc1cc(-c2cc3ccnc(NCc4ccc(-c5ccnc(F)c5)c(F)c4)c3cn2)ccn1 [Compound 28]
Cc1cc(-c2ncc(CNc3nccc4cc(-c5cnccn5)ccc34)cc2C)ccn1 [Compound 70]
Cc1cc(-c2cc3ccnc(NCc4ccc(-c5ccnc(C)c5)c(C)c4)c3cn2)ccn1 [Compound 2, N-(3-methyl-4-(2-methylpyridin-4-yl)benzyl)-6-(2-methylpyridin-4-yl)-2,7-naphthyridin-1-amine]
